Data set [1] concerns gerbil. To be noted: Carboni et al. 2004; cited from earlier work.
The test system of data set [2] is primary embryonic cultures, PC12 cells, mice. Conditions: at doses inhibiting JNK activation; cited from earlier work.
For data set [3], the system named is Sprague-Dawley albino rats. Nature of the data set: Light-induced photoreceptor damage (AMD model), ERG and ONL thickness. The data set is classed as in vivo, rat. Conditions: for a-wave recovery (% of baseline) / b-wave recovery (% of baseline): 50 mg/kg i.p. x5.
The test system of data set [4] is C57BL/6N mice. To be noted: Wang et al. 2004; cited from earlier work.
Data set [5] is described as follows: Phase II trial, post-surgery intraocular inflammation, vs dexamethasone eye drops. The data set is classed as in vivo, human.
Data set [6] concerns Sprague-Dawley rats. The data set can be described thus: STZ diabetic nephropathy model, chronic administration. The data set is classed as in vivo, rat. Conditions: 25 mg/kg po daily.
The subject of data set [7] is JNK. To be noted: Dickens et al. 1997; cited from earlier work.
The test system of data set [8] is TC-3 cells. The data set can be described thus: Cellular import of fluorescein-labelled TAT and TAT-IB1(s) peptides. The data set is classed as cell-based. Conditions: for time to enter cells: 1 μM labelled peptide.
Data set [9] has as its system TC-3 cells. Nature of the data set: IL-1-induced pancreatic beta-cell apoptosis. To be noted: 1 μM single addition. The data set is classed as cell-based.
In data set [10] the test system is AP-1 DNA binding complex in HeLa nuclear extracts. Nature of the data set: Gel retardation assay, AP-1 DNA binding complex after TNF-alpha. Format: cell-based. Conditions: added 30 min before TNF-alpha 5 ng/ml.

The text below walks through data of KR20170021349A, “다양한 질병의 치료를 위한 jnk 신호 전달 경로의 세포 투과성 펩타이드 억제자의 새로운 용도” (자이겐 인플라메이션 리미티드, priority 2014, dated 2017).

No end group written: not given here. Where only a bound is given, the exact number is not on record here.

Turning to `N#CC(c1ccnc(NCCc2cccnc2)n1)c1nc2ccccc2s1` (stereo not shown) [AS601245], in data set [1], the “protection against delayed loss of hippocampal CA1 neurons” value is “현저한 보호를 제공한다”.
Consider `CCSCc1ccc2c(c1)c1c3c(c4c5cc(CSCC)ccc5n5c4c1n2[C@H]1C[C@](O)(C(=O)OC)[C@]5(C)O1)CNC3=O` [CEP-1347], for which the neuronal survival result in data set [2] was “신경 생존을 촉진한다”.
For `CC(C)(C)/[N+]([O-])=C/c1ccccc1` [PBN, 페닐-N-tert-부틸니트론, reference compound], the “a-wave recovery (% of baseline)” value in data set [3] (day 9) was found to be 70.4%; in [3] (day 16), 79.6%; in data set [3] (day 23) it was 76.2%. The “b-wave recovery (% of baseline)” value came out at 100% in [3] (day 9), 103.6% in [3] (day 16) and 102.4% in data set [3] (day 23). The “ONL thickness loss (% vs non-induced control eyes)” value in data set [3] (ip 50 mg/kg) is 16%. The ONL thickness in [3] (ip 50 mg/kg, day 23, p<0.05 vs vehicle) worked out at 34.05 ± 4.00 μm.
Turning to `Oc1c2ccccc2c2c3c(cccc13)N=N2` [SP600125], the “level of c-Jun phosphorylation” value in [4] was “c-Jun 인산화의 수준을 감소”.
Consider `C[C@@H]1C[C@H]2[C@@H]3CCC4=CC(=O)C=C[C@]4(C)[C@@]3(F)[C@@H](O)C[C@]2(C)[C@@]1(O)C(=O)CO` [덱사메타손, reference compound], for which, in data set [5] (eye drops), the “AEs leading to interruption of study treatment, events (%)” value is 3 (5.5%); the “mild AEs, number of events (%)” value is given as 42 (76.4%); the “moderate AEs, number of events (%)” value is 9 (16.4%); the “patients with an AE within 24 h of administration” value was 30%. Also, in data set [5] (eye drops), the “patients with intraocular pressure increased” value is listed as 14% and the “severe AEs, number of events (%)” value is reported as 4 (7.3%). Besides, the “patients with rescue medication introduced” value in [5] (eye drops 1 mg/ml 4x/day 21 d) was 4.0%. The “SOC eye disorders, patients” value in data set [5] (eye drops (16 patients)) is on record as 32%. In addition, the “premature withdrawal of study eye drops, patients (%)” value in data set [5] (eye drops (N=50)) is 3 (6.0%). Further, in data set [5] (eye drops, 29/50), the “patients with an adverse event” value amounted to 58%.
As for `CCCCc1nc(Cl)c(CO)n1Cc1ccc(-c2ccccc2-c2nn[nH]n2)cc1` [로사르탄, 로사르탄 칼륨, reference compound], the “body weight vs vehicle-treated STZ rats” value in data set [6] is “현저하게 낮았다”.
For the compound IPSPSVEEPHKHRPTTLRLTTLGAQDS [IB2-long], the “fold more efficient than c-Jun or ATF2 in binding JNK” value in [7] was ~100 배.
As for “NH2-GRKKRRQRRR-COOH (H-GRKKRRQRRR-OH) [L-TAT]”, the “time to enter cells” value in [8] is reported as < 5 분.
“NH2-GRKKRRQRRRPPRPKRPTTLNLFPQVPRSQD-COOH (H-GRKKRRQRRRPPRPKRPTTLNLFPQVPRSQD-OH) [L-TAT-IB1(s)]”: the “long-term protection against IL-1-induced cell death” value in [9] (15 days IL-1) was “그렇지 않았다”. In addition, in [10], the “formation of AP-1 DNA binding complex” value is “감소시켰다”. Moreover, the “time to enter cells” value in data set [8] was < 5 분.
Take “NH2-RRRQRRKKRG-COOH (H-RRRQRRKKRG-OH; also: D-amino acids (positions not given here)) [D-TAT]”: in data set [8], the stability inside cells entry is given as “극도로 안정하다” and the “time to enter cells” value is < 5 분.
For the compound “PGTGCGDTYRPKRPTTLNLFPQVPRSQDT [IB1-long]”, the “fold more efficient than c-Jun or ATF2 in binding JNK” value in data set [7] was ~100 배.
For “TDQSRPVQPFLNLTTPRKPRYTDPPRRRQRRKKRG (also: D-amino acids (positions not given here)) [D-TAT-IB1]”, the IL-1-induced apoptosis result in [9] (2 days IL-1, similar extent as L-TAT-IB) is “감소시켰다”.
